Data set [1] is described as follows: Compressibility study (strain rate sensitivity). It is filed as physicochemical. On the procedure:
To investigate the behavior of elacestrant dihydrochloride under mechanical stress, a compressibility study was performed. […] Thus, deformation was expected to be affected by speed. Crushing strength was rather low at slow speed and decreased as speed increased due to elastic recovery. […] The insights and recommendations from this work led to careful selection of excipients to keep tablet strength high for tablets with drug loads above 25%.

Data set [2] can be described thus: Human effective jejunal permeability. The note with it: Caco-2, scaled from in vitro Caco2 data, read-out: Human effective jejunal permeability, initial value. The text has this: (§1) The physicochemical and biopharmaceutical properties for elacestrant dihydrochloride and its free base, elacestrant, were defined using a combination of in silico estimates from the ADMET Predictor® module that were based on the chemical structure, along with in vitro and in vivo data obtained from the literature and internal data. Table 5 summarizes the parameter values used for the elacestrant dihydrochloride […] pharmacokinetics (PBPK) model.

The nature of data set [3]: Human blood-to-plasma ratio. It is filed as in vitro ADME. The note with it: blood and plasma, RAD1901-111, read-out: Human blood-to-plasma ratio, initial value.
Excerpt: as §1

Data set [4] in a line: Physicochemical properties (Log P, pKa, solubility vs. pH) for PBPK model.
Excerpt: as §1
The solubility vs. pH profile is solved using conventional methods known to those in the art and using the measure pKa values for elacestrant (Table 5). The pHmax for elacestrant is 4.3. These values were used to model in vitro drug product dissolution. The in vivo solubility values of elacestrant dihydrochloride are calculated as a function of the volume administered and the food volume, where relevant.

Data set [5] can be described thus: Dissolution in media of pH 1.2, 2.0 (QC), 4.5 and 6.8 with f2 analysis. The settings on record: pH 6.8 (phosphate buffer); dihydrochloride. It is filed as physicochemical. On the procedure:
Dissolution profiles for Formulation 2 at the target hardness (13.3 kP and 16.4 kP for 100 mg and 400 mg tablets, respectively), were generated using testing conditions that represented the physiological range of pH 1.2 (0.1 N HCl) to pH 6.8 (phosphate buffer), as well as in the QC medium (0.01 N HCl) and at pH 4.5 (acetate buffer). The dissolution profiles under these various conditions are shown in FIGS. 11A-D (100 mg tablets) and FIGS. 12A-D (400 mg tablets).
FIGS. 13A-D compare the dissolution profiles of the elacestrant dihydrochloride 100 mg drug product used in the Pivotal BE study under 4 different dissolution conditions. […] At the highest tested pH (pH 6.8) the solubility of the drug is so low that this test condition is not a reliable method for testing the dissolution of elacestrant dihydrochloride 100 mg tablets. The curves were compared using f2 analysis. […] Although the data at pH 6.8 also indicate the two curves are similar, the percent released was so low that this comparison was not of any value.

Data set [6] has as its system ER+HER2-breast cancer models. The note with it: including models resistant to fulvestrant and CDK4/6 inhibitors and those harboring ESR1 mutations; cited from earlier work.
Data set [7] concerns ER-positive (ER+) HER2-negative (HER2−) breast cancer cells. The settings on record: at concentrations inducing degradation of ERα protein; cited from earlier work.
A short description of data set [8]: Exposure-response (ER) analysis for PFS. It is filed as in vivo, human. The note with it: non-parametric and parametric survival analysis.

Results on two compounds are retold here after patent publication US20260199249A1, “SOLID ELACESTRANT DIHYDROCHLORIDE COMPOSITIONS, METHODS OF MAKING THE SAME, AND METHODS OF TREATMENT USING THE SAME” (BERLIN-CHEMIE AG, priority 2023, published 2026).

Each structure is given as a SMILES string. “Also recorded” adds a separate entry of the source. Counter-ions that a name gives are not always drawn.

In data set [1], `CCNCCc1ccc(CN(CC)c2cc(OC)ccc2[C@@H]2CCc3cc(O)ccc3C2)cc1` [Elacestrant Dihydrochloride, (6R)-6-(2-(N-(4-(2-(ethylamino)ethyl)benzyl)-N-ethylamino)-4-methoxyphenyl)-5,6,7,8-tetrahydronaphthalen-2-ol dihydrochloride] had a strain rate sensitivity of 15.5%. Also, the Papp in data set [2] stood at 32 ×10⁻⁶ cm/s. In addition, in data set [3], the blood plasma ratio amounted to 0.701. Further, the logP in data set [4] came out at 5.56. For the same compound, the solubility entry in data set [4] (0.01 N HCl) is “feely soluble”; in data set [4] (salt, pH = 4.3, read-out: Intrinsic solubility), 39.4 mg/mL; in data set [5], “significantly lower; also recorded: so low”. For the same compound, the pKa was determined as 12 in data set [4] ((A)); 6.39 in data set [4] ((B), first); 7.74 in data set [4] ((B), second).
On to `CCNCCc1ccc(CN(CC)c2cc(OC)ccc2[C@@H]2CCc3cc(O)ccc3C2)cc1` [Elacestrant], for which the pHmax in data set [4] amounted to 4.3. In data set [4] (free base, pH = 10, read-out: Intrinsic solubility), the solubility came to 0.000115 mg/mL. For the same compound, the antitumor activity entry in data set [6] is “demonstrated in vitro and in vivo antitumor activity”. The “17β-estradiol mediated cell proliferation” value in data set [7] was “inhibited 17β-estradiol mediated cell proliferation”. In addition, the “exposure-response for PFS (progression-free survival)” value in data set [8] is reported as “no differences in PFS across the observed range of elacestrant exposures”.
